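The compound was tested at five concentrations on cells cultured in 96-well plates, with a 48-hour exposure period. TGI: concentration producing complete growth inhibition.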

Test systems include SN12C renal; HCT-116 colon; EKVX NSCLC; HOP-62 NSCLC; SF-539 CNS; CCRF-CEM leukemia; KM12 colon; MALME-3M melanoma; HL-60(TB) leukemia; U251 CNS; OVCAR-4 ovarian; A498 renal; OVCAR-8 ovarian; TK-10 renal; RXF 393 renal; BT-549 breast; NCI/ADR-RES ovarian.
Holding throughout (test): NCI anticancer screen, dose series, 48 h

Turning to `CCOc1ccc(N=Nc2ccc3oc(=O)c(C(=O)Nc4ccc(OC)cc4)cc3c2)cc1`, the TGI is over 100 µM in the assay with SN12C renal; 26.2 µM with HCT-116 colon; 86.7 µM with EKVX NSCLC; 63.6 µM in the assay with HOP-62 NSCLC; 51 µM with SF-539 CNS; 25.4 µM in the assay with CCRF-CEM leukemia. The TGI with KM12 colon was over 100 µM; with MALME-3M melanoma, over 100 µM; in the assay with HL-60(TB) leukemia, 20.4 µM; in the assay on U251 CNS it was 61.1 µM; in the assay with OVCAR-4 ovarian, 52.9 µM; in the assay with A498 renal, over 100 µM. Further, the TGI in the assay on OVCAR-8 ovarian was 67.6 µM; in the assay with TK-10 renal, over 100 µM.
For the molecule `NC(=S)N1N=C2c3ccccc3CC[C@H]2[C@@H]1c1cccs1`, the TGI is over 100 µM in the assay on SN12C renal; over 100 µM in the assay on HCT-116 colon; over 100 µM in the assay with EKVX NSCLC; over 100 µM in the assay on HOP-62 NSCLC; over 100 µM in the assay on SF-539 CNS; 81.5 µM in the assay with CCRF-CEM leukemia. Besides, the TGI in the assay on RXF 393 renal was 83 µM; in the assay with KM12 colon, over 100 µM; with MALME-3M melanoma, 80.2 µM; in the assay with HL-60(TB) leukemia, 42.8 µM; in the assay on U251 CNS, over 100 µM; in the assay with OVCAR-4 ovarian, over 100 µM. The TGI with A498 renal, with OVCAR-8 ovarian and with TK-10 renal was over 100 µM throughout.
On to `CC(C)C(=O)/C=C/c1ccc(Cl)cc1`, for which the TGI with SN12C renal came out at 21.7 µM; with HCT-116 colon, 11.5 µM; in the assay on SF-539 CNS, 22.6 µM; with CCRF-CEM leukemia, 51.7 µM; in the assay on RXF 393 renal it was 35.5 µM; in the assay on KM12 colon, 23.8 µM. The TGI in the assay with HL-60(TB) leukemia stood at 28.8 µM; in the assay on U251 CNS it was 25.5 µM; with OVCAR-4 ovarian it was 52.3 µM.
For the molecule `Cc1nc2ccccc2c(=O)n1NC(=O)c1ccccc1O`, the TGI in the assay on SN12C renal, in the assay on HCT-116 colon, with EKVX NSCLC, in the assay with HOP-62 NSCLC, in the assay on SF-539 CNS and in the assay on CCRF-CEM leukemia was over 100 µM in each case. The TGI with RXF 393 renal, with KM12 colon, with HL-60(TB) leukemia, in the assay with U251 CNS, in the assay on OVCAR-4 ovarian and in the assay on A498 renal was over 100 µM throughout. Also, the TGI with BT-549 breast, with OVCAR-8 ovarian and with TK-10 renal was over 100 µM in each case.
`COC(=O)N/N=C/c1oc(-c2ccccc2)c(-c2ccccc2)c1[N+](=O)[O-]`: the TGI in the assay with SN12C renal, in the assay on HCT-116 colon, with HOP-62 NSCLC, in the assay on SF-539 CNS, in the assay on RXF 393 renal and in the assay with KM12 colon was over 100 µM in each case. Further, the TGI with MALME-3M melanoma, in the assay on HL-60(TB) leukemia, in the assay on U251 CNS, with OVCAR-4 ovarian, with OVCAR-8 ovarian and with TK-10 renal was over 100 µM throughout.
With `O=c1cc(CC(O)(C(F)(F)Cl)C(F)(F)Cl)[nH]n1-c1ccccc1`, the TGI in the assay on SN12C renal, in the assay on HCT-116 colon, in the assay on EKVX NSCLC, in the assay with HOP-62 NSCLC, in the assay with SF-539 CNS and in the assay on CCRF-CEM leukemia was over 100 µM in each case. The TGI in the assay on NCI/ADR-RES ovarian, in the assay on RXF 393 renal, with KM12 colon, in the assay on MALME-3M melanoma, in the assay on HL-60(TB) leukemia and in the assay with U251 CNS was over 100 µM throughout. Besides, the TGI in the assay on OVCAR-4 ovarian, in the assay with A498 renal, in the assay on OVCAR-8 ovarian and with TK-10 renal was over 100 µM each time.
As to `CC1(C)C2CCC3(OCCO3)C1C1OC12` (stereo unspecified), the TGI in the assay on HCT-116 colon, in the assay on EKVX NSCLC, in the assay on SF-539 CNS, with CCRF-CEM leukemia, in the assay on RXF 393 renal and in the assay with KM12 colon was over 100 µM each time. Besides, the TGI in the assay on MALME-3M melanoma, in the assay with HL-60(TB) leukemia, in the assay with U251 CNS, with OVCAR-4 ovarian, in the assay on A498 renal and in the assay with OVCAR-8 ovarian was over 100 µM each time. Further, the TGI in the assay on TK-10 renal was over 100 µM.
For `COC(=O)C(Cc1ccccc1I)C1=CCC2(CC1)OCCO2` (stereo unspecified), the TGI with EKVX NSCLC was over 100 µM; with HOP-62 NSCLC, over 100 µM; in the assay on SF-539 CNS, over 100 µM; with CCRF-CEM leukemia, 81 µM; in the assay on NCI/ADR-RES ovarian it was 55.8 µM; in the assay with RXF 393 renal, 42.5 µM. Besides, the TGI in the assay on KM12 colon was 76.2 µM; in the assay with MALME-3M melanoma, 56.5 µM; in the assay with HL-60(TB) leukemia, 41.5 µM; with U251 CNS, over 100 µM; with OVCAR-4 ovarian, over 100 µM; in the assay on A498 renal, over 100 µM. The TGI in the assay on OVCAR-8 ovarian and in the assay with TK-10 renal was over 100 µM each time.
For `COc1ccc([N-]/C(=N\n2c(=O)c(C)nn(C)c2=S)N(c2ccc(OC)cc2)c2nn3c(=O)c(C)n[n+](C)c3s2)cc1`, the TGI in the assay on SN12C renal, in the assay on HCT-116 colon, in the assay with EKVX NSCLC, in the assay with HOP-62 NSCLC, in the assay on SF-539 CNS and in the assay with CCRF-CEM leukemia was over 100 µM each time. Further, the TGI with RXF 393 renal, in the assay on KM12 colon, in the assay on HL-60(TB) leukemia, in the assay on U251 CNS, with OVCAR-4 ovarian and in the assay with A498 renal was over 100 µM in each case. Also, the TGI in the assay with OVCAR-8 ovarian was over 100 µM.

Values taken from PubChem BioAssay (NCI).
